Where a name gives a salt, the structure may show the parent alone. Read-outs that look alike come from different tables or passages of the source.
Columns and labels:
Experiment in all cases: AK assay 384-well format, Prestwick library screening
[1] = system: S. aureus strain USA300-0114; format: cell-based, Staphylococcus aureus; details: for fold induction at 50 µM: Staphylococcus aureus, USA300, 3 h
P. aeruginosa = format: cell-based, Pseudomonas aeruginosa; details: for fold induction at 50 µM: Pseudomonas aeruginosa, 3 h
K. pneumoniae = format: cell-based, Klebsiella pneumoniae; details: for fold induction at 50 µM: Klebsiella pneumoniae, 3 h
E. faecium = format: cell-based, Enterococcus faecium; details: for fold induction at 50 µM: Enterococcus faecium, 3 h
E. cloacae = format: cell-based, Enterobacter cloacae; details: for fold induction at 50 µM: Enterobacter cloacae, 3 h
E. coli = format: cell-based, Escherichia coli; details: for fold induction at 50 µM: Escherichia coli, 3 h
[2] = system: A. baumannii strain 98-37-09; format: cell-based, Acinetobacter baumannii; details: for fold induction at 50 µM: Acinetobacter baumannii, 983709, 3 h

SMILES: CCCSc1ccc2nc(NC(=O)OC)[nH]c2c1 [Albendazole]
- fold induction at 50 µM ([1]; 50 μM final drug concentration, 384-well format, […], read-out: AK-based Prestwick Library Screening Results, S. aureus (increase in extracellular AK activity)): 0.2
- fold induction at 50 µM (P. aeruginosa; 50 μM final drug concentration, 384-well format, […], read-out: AK-based Prestwick Library Screening Results, P. aeruginosa (increase in extracellular AK activity)): 0.3
- fold induction at 50 µM (K. pneumoniae; 50 μM final drug concentration, 384-well format, […], read-out: AK-based Prestwick Library Screening Results, K. pneumoniae (increase in extracellular AK activity)): 0.3
- fold induction at 50 µM (E. faecium; 50 μM final drug concentration, 384-well format, […], read-out: AK-based Prestwick Library Screening Results, E. faecium (increase in extracellular AK activity)): 0.5
- fold induction at 50 µM (E. cloacae; read-out: AK-based Prestwick Library Screening Results, E. cloacae (increase in extracellular AK activity)): 0.4
- fold induction at 50 µM (E. coli; 50 μM final drug concentration, 384-well format, […], read-out: AK-based Prestwick Library Screening Results, E. coli (increase in extracellular AK activity)): 0.3
- fold induction at 50 µM ([2]; 50 μM final drug concentration, 384-well format, […], read-out: AK-based Prestwick Library Screening Results, A. baumannii (increase in extracellular AK activity)): 0.3

SMILES: CCC(=O)OCC(=O)[C@@]1(OC(=O)CC)[C@H](C)C[C@H]2[C@H]3[C@H]([C@@H](O)C[C@@]21C)[C@@]1(C)C=CC(=O)C=C1C[C@H]3Cl [Alclometasone dipropionate]
- fold induction at 50 µM ([1]; 50 μM final drug concentration, […], read-out: AK-based Prestwick Library Screening Results, S. aureus (fold increase in extracellular AK activity)): 1.1
- fold induction at 50 µM (P. aeruginosa; 50 μM final drug concentration, […], read-out: AK-based Prestwick Library Screening Results, P. aeruginosa (fold increase in extracellular AK activity)): 1
- fold induction at 50 µM (K. pneumoniae; 50 μM final drug concentration, […], read-out: AK-based Prestwick Library Screening Results, K. pneumoniae (fold increase in extracellular AK activity)): 1.1
- fold induction at 50 µM (E. faecium; 50 μM final drug concentration, […], read-out: AK-based Prestwick Library Screening Results, E. faecium (fold increase in extracellular AK activity)): 1
- fold induction at 50 µM (E. cloacae; 50 μM final drug concentration, […], read-out: AK-based Prestwick Library Screening Results, E. cloacae (fold increase in extracellular AK activity)): 1.2
- fold induction at 50 µM (E. coli; 50 μM final drug concentration, […], read-out: AK-based Prestwick Library Screening Results, E. coli (fold increase in extracellular AK activity)): 1.1
- fold induction at 50 µM ([2]; 50 μM final drug concentration, […], read-out: AK-based Prestwick Library Screening Results, A. baumannii (fold increase in extracellular AK activity)): 0.9

SMILES: C=CC[N@@+]12CC[C@@]34c5ccccc5N5/C=C6/[C@H]7C[C@H]8[C@@]9(CC[N@@+]8(CC=C)C/C7=C/CO)c7ccccc7N(/C=C(/[C@@H](C[C@@H]31)/C(=C\CO)C2)[C@H]54)[C@@H]69.[Cl-].[Cl-] [Alcuronium chloride]
- AK-based Prestwick library screening result, S. aureus (fold increase in extracellular AK activity) ([1]; planktonic S. aureus, 50 μM final drug concentration, […]): 1.2
- AK-based Prestwick library screening result, P. aeruginosa (fold increase in extracellular AK activity) (P. aeruginosa; planktonic P. aeruginosa, 50 μM final drug concentration, […]): 1.0
- AK-based Prestwick library screening result, K. pneumoniae (fold increase in extracellular AK activity) (K. pneumoniae; planktonic K. pneumoniae, 50 μM final drug concentration, […]): 1.0
- AK-based Prestwick library screening result, E. faecium (fold increase in extracellular AK activity) (E. faecium; planktonic E. faecium, 50 μM final drug concentration, […]): 1.0
- AK-based Prestwick library screening result, E. cloacae (fold increase in extracellular AK activity) (E. cloacae; planktonic E. cloacae, 50 μM final drug concentration, […]): 2.2
- AK-based Prestwick library screening result, E. coli (fold increase in extracellular AK activity) (E. coli; planktonic E. coli, 50 μM final drug concentration, […]): 1.4
- AK-based Prestwick library screening result, A. baumannii (fold increase in extracellular AK activity) ([2]; planktonic A. baumannii, 50 μM final drug concentration, […]): 1.4

SMILES: CC(=O)OCC(=O)[C@H]1CC[C@H]2[C@@H]3CC[C@H]4C[C@H](O)CC[C@]4(C)[C@H]3C(=O)C[C@]12C [Alfadolone acetate]
- fold induction at 50 µM ([1]; planktonic S. aureus, 50 μM final drug concentration, […], read-out: AK-based Prestwick library screening result, S. aureus (fold increase in extracellular AK activity)): 1
- fold induction at 50 µM (P. aeruginosa; planktonic P. aeruginosa, 50 μM final drug concentration, […], read-out: AK-based Prestwick library screening result, P. aeruginosa (fold increase in extracellular AK activity)): 1
- fold induction at 50 µM (K. pneumoniae; planktonic K. pneumoniae, 50 μM final drug concentration, […], read-out: AK-based Prestwick library screening result, K. pneumoniae (fold increase in extracellular AK activity)): 0.9
- fold induction at 50 µM (E. faecium; planktonic E. faecium, 50 μM final drug concentration, […], read-out: AK-based Prestwick library screening result, E. faecium (fold increase in extracellular AK activity)): 1.1
- fold induction at 50 µM (E. cloacae; planktonic E. cloacae, 50 μM final drug concentration, […], read-out: AK-based Prestwick library screening result, E. cloacae (fold increase in extracellular AK activity)): 1.4
- fold induction at 50 µM (E. coli; planktonic E. coli, 50 μM final drug concentration, […], read-out: AK-based Prestwick library screening result, E. coli (fold increase in extracellular AK activity)): 1.2
- fold induction at 50 µM ([2]; planktonic A. baumannii, 50 μM final drug concentration, […], read-out: AK-based Prestwick library screening result, A. baumannii (fold increase in extracellular AK activity)): 1

SMILES: CC(=O)[C@H]1CC[C@H]2[C@@H]3CC[C@H]4C[C@H](O)CC[C@]4(C)[C@H]3C(=O)C[C@]12C [Alfaxalone]
- fold induction at 50 µM ([1]; read-out: AK-based Prestwick library screening result, S. aureus (fold increase in extracellular AK activity)): 1.2
- fold induction at 50 µM (P. aeruginosa; read-out: AK-based Prestwick library screening result, P. aeruginosa (fold increase in extracellular AK activity)): 1.2
- fold induction at 50 µM (K. pneumoniae; read-out: AK-based Prestwick library screening result, K. pneumoniae (fold increase in extracellular AK activity)): 1
- fold induction at 50 µM (E. faecium; read-out: AK-based Prestwick library screening result, E. faecium (fold increase in extracellular AK activity)): 1.1
- fold induction at 50 µM (E. cloacae; read-out: AK-based Prestwick library screening result, E. cloacae (fold increase in extracellular AK activity)): 1.7
- fold induction at 50 µM (E. coli; read-out: AK-based Prestwick library screening result, E. coli (fold increase in extracellular AK activity)): 1.2
- fold induction at 50 µM ([2]; read-out: AK-based Prestwick library screening result, A. baumannii (fold increase in extracellular AK activity)): 1

SMILES: COc1cc2nc(N(C)CCCNC(=O)C3CCCO3)nc(N)c2cc1OC (centres unmarked) [Alfuzosin hydrochloride]
- fold induction at 50 µM ([1]; planktonic S. aureus, 50 μM final drug concentration, 384-well, cutoff for positive-scoring molecules 3-fold increase, read-out: AK-based Prestwick Library Screening Results: S. aureus (increase in extracellular AK activity)): 0.3
- fold induction at 50 µM (P. aeruginosa; planktonic P. aeruginosa, 50 μM final drug concentration, 384-well, cutoff for positive-scoring molecules 3-fold increase, read-out: AK-based Prestwick Library Screening Results: P. aeruginosa (increase in extracellular AK activity)): 0.4
- fold induction at 50 µM (K. pneumoniae; planktonic K. pneumoniae, 50 μM final drug concentration, 384-well, cutoff for positive-scoring molecules 3-fold increase, read-out: AK-based Prestwick Library Screening Results: K. pneumoniae (increase in extracellular AK activity)): 0.4
- fold induction at 50 µM (E. faecium; planktonic E. faecium, 50 μM final drug concentration, 384-well, cutoff for positive-scoring molecules 3-fold increase, read-out: AK-based Prestwick Library Screening Results: E. faecium (increase in extracellular AK activity)): 0.9
- fold induction at 50 µM (E. cloacae; planktonic E. cloacae, 50 μM final drug concentration, 384-well, cutoff for positive-scoring molecules 3-fold increase, read-out: AK-based Prestwick Library Screening Results: E. cloacae (increase in extracellular AK activity)): 0.4
- fold induction at 50 µM (E. coli; planktonic E. coli, 50 μM final drug concentration, 384-well, cutoff for positive-scoring molecules 3-fold increase, read-out: AK-based Prestwick Library Screening Results: E. coli (increase in extracellular AK activity)): 0.5
- fold induction at 50 µM ([2]; planktonic A. baumannii, 50 μM final drug concentration, 384-well, cutoff for positive-scoring molecules 3-fold increase, read-out: AK-based Prestwick Library Screening Results: A. baumannii (increase in extracellular AK activity)): 0.4

SMILES: C=CCN1CCCC1CNC(=O)c1cc2[nH]nnc2cc1OC (centres unmarked) [Alizapride HCl]
- fold induction at 50 µM ([1]; 50 μM final drug concentration, planktonic, cutoff for positive 3-fold increase, read-out: AK-based Prestwick Library Screening Results, S. aureus (fold increase in extracellular AK activity)): 1
- fold induction at 50 µM (P. aeruginosa; 50 μM final drug concentration, planktonic, cutoff for positive 3-fold increase, read-out: AK-based Prestwick Library Screening Results, P. aeruginosa (fold increase in extracellular AK activity)): 1.1
- fold induction at 50 µM (K. pneumoniae; 50 μM final drug concentration, planktonic, cutoff for positive 3-fold increase, read-out: AK-based Prestwick Library Screening Results, K. pneumoniae (fold increase in extracellular AK activity)): 0.9
- fold induction at 50 µM (E. faecium; 50 μM final drug concentration, planktonic, cutoff for positive 3-fold increase, read-out: AK-based Prestwick Library Screening Results, E. faecium (fold increase in extracellular AK activity)): 1
- fold induction at 50 µM (E. cloacae; 50 μM final drug concentration, planktonic, cutoff for positive 3-fold increase, read-out: AK-based Prestwick Library Screening Results, E. cloacae (fold increase in extracellular AK activity)): 1.4
- fold induction at 50 µM (E. coli; 50 μM final drug concentration, planktonic, cutoff for positive 3-fold increase, read-out: AK-based Prestwick Library Screening Results, E. coli (fold increase in extracellular AK activity)): 1
- fold induction at 50 µM ([2]; 50 μM final drug concentration, planktonic, cutoff for positive 3-fold increase, read-out: AK-based Prestwick Library Screening Results, A. baumannii (fold increase in extracellular AK activity)): 1.1

SMILES: NC(=O)NC1NC(=O)NC1=O (centres unmarked) [Allantoin]
- fold induction at 50 µM ([1]; 50 μM final drug concentration, 384-well format, cutoff for positive-scoring molecules 3-fold increase, read-out: AK-based Prestwick Library Screening Results, S. aureus (increase in extracellular AK activity)): 1.4
- fold induction at 50 µM (P. aeruginosa; 50 μM final drug concentration, 384-well format, cutoff for positive-scoring molecules 3-fold increase, read-out: AK-based Prestwick Library Screening Results, P. aeruginosa (increase in extracellular AK activity)): 0.3
- fold induction at 50 µM (K. pneumoniae; 50 μM final drug concentration, 384-well format, cutoff for positive-scoring molecules 3-fold increase, read-out: AK-based Prestwick Library Screening Results, K. pneumoniae (increase in extracellular AK activity)): 0.4
- fold induction at 50 µM (E. faecium; 50 μM final drug concentration, 384-well format, cutoff for positive-scoring molecules 3-fold increase, read-out: AK-based Prestwick Library Screening Results, E. faecium (increase in extracellular AK activity)): 0.7
- fold induction at 50 µM (E. cloacae; 50 μM final drug concentration, 384-well format, cutoff for positive-scoring molecules 3-fold increase, read-out: AK-based Prestwick Library Screening Results, E. cloacae (increase in extracellular AK activity)): 0.3
- fold induction at 50 µM (E. coli; 50 μM final drug concentration, 384-well format, cutoff for positive-scoring molecules 3-fold increase, read-out: AK-based Prestwick Library Screening Results, E. coli (increase in extracellular AK activity)): 0.4
- fold induction at 50 µM ([2]; 50 μM final drug concentration, 384-well format, cutoff for positive-scoring molecules 3-fold increase, read-out: AK-based Prestwick Library Screening Results, A. baumannii (increase in extracellular AK activity)): 0.4
